Measured values from patent US20100305076A1, “METHODS OF TREATMENT FOR ULCERATIVE COLITIS” (priority 2006, published 2010).

Assays:
Assay type in all cases: in vivo, human
[1] = system: moderate ulcerative colitis; assay: Individual subject examples: PGA score and rectal bleeding
Text: The subject takes two tablets of the pharmaceutical in the morning and two tablets in the evening such that about 4.8 g/day of 5-ASA is delivered. […] The four tablets are taken in the morning so that 4.8 g/day of 5-ASA is delivered.

[2] = system: moderate ulcerative colitis; assay: Two phase III randomized double-blind trials: overall improvement (treatment success) from baseline at week 6; settings: for Overall improvement: all subjects with moderately active UC, Studies I and II
Text: Data from subjects with mild to moderate UC are combined and analyzed from two phase III, multi-center, randomized, double-blind, controlled clinical trials of identical design assessing the safety and clinical efficacy of an increased dosage of 5-ASA. The primary endpoint is the percentage of moderate UC subjects achieving overall improvement (i.e., treatment success) from baseline at week 6. This is defined as: (1) complete response (remission); complete resolution of signs and symptoms (stool frequency, rectal bleeding, Subject Functional Assessment (SFA) and sigmoidoscopy score) and a Physician's Global Assessment (PGA) of 0; or (2) partial response; improvement from baseline in the PGA score and improvement in at least one clinical assessment (stool frequency, rectal bleeding, SFA and sigmoidoscopy score) and no worsening in any of the other clinical assessments. […] Pre-specified subgroup analyses for fifty-four demographic and baseline characteristics are performed in subjects with moderately active disease (PGA score=2) to assess consistency of primary endpoint.

[3] = system: moderate ulcerative colitis; assay: Bayesian analysis of treatment success probability in men with moderate disease
Protocol: In addition, a Bayesian analysis is conducted to calculate the probability that treatment with the 4.8 g/day dose in men results in a higher success rate than treatment with the 2.4 g/day does. This type of analysis considers data from any previous studies conducted using either of the two dose levels. […] Using these prior distributions and Bayes analyses, the “posterior distribution” is calculated for each dose level based on the date obtained from previous studies.

[4] = Safety and tolerability in the phase III trials
Text: Data from subjects with mild to moderate UC are combined and analyzed from two phase III, multi-center, randomized, double-blind, controlled clinical trials of identical design assessing the safety and clinical efficacy of an increased dosage of 5-ASA.

[5] = Example 6: person, two 1.2 g delayed-release tablets three times daily (7.2 g/day)
[6] = Example 4: non-smoking man, oral, two 1.2 g tablets twice daily
[7] = Example 5: person previously treated with steroids, four 1.2 g delayed-release tablets once daily (4.8 g/day)

Structure (SMILES): O=C(O)CCNC(=O)c1ccc(/N=N/c2ccc(O)c(C(=O)O)c2)cc1 [balsalazide, (E)-5-[[4-[[(2-carboxyethyl)amino]carbonyl]phenyl]azo]-2-hydroxybenzoic acid]
- Physician's Global Assessment (PGA) score [1, 5]: improves in comparison to baseline
- Rectal bleeding [1, 5]: reduced

Structure (SMILES): O=C(O)c1cc(N=Nc2ccc(O)c(C(=O)O)c2)ccc1O [olsalazine, 3,3′-dicarboxy-4,4′-dihydroxyazobenzene]
- Physician's Global Assessment (PGA) score [1, 6]: improves in comparison to baseline
- Rectal bleeding [1, 6]: reduces

Structure (SMILES): Nc1ccc(O)c(C(=O)O)c1 [mesalamine, 5-amino-2-hydroxybenzoic acid]
- Physician's Global Assessment (PGA) score [1, 7]: improves in comparison to baseline
- Rectal bleeding [1, 7]: reduced
- Overall improvement ([2]; 2.4 g/day (400 mg tablet)): 58%
- Success Rate ([2]; 2.4 g/day, male, moderate disease, Study 1, primary analysis): 50.0%
- Success Rate ([2]; 2.4 g/day, male, moderate disease, Study 1, set-to-failure): 46.8%
- Success Rate ([2]; 2.4 g/day, male, moderate disease, Study 2, primary analysis): 48.8%
- Success Rate ([2]; 2.4 g/day, male, moderate disease, Study 2, set-to-failure): 47.7%
- Overall improvement at week 6 ([2]; 2.4 g/day, moderate UC, combined studies, female): 66%
- Overall improvement at week 6 ([2]; 2.4 g/day, moderate UC, combined studies, left-sided colitis): 56%
- Overall improvement at week 6 ([2]; 2.4 g/day, moderate UC, combined studies, male): 50%
- Overall improvement at week 6 ([2]; 2.4 g/day, moderate UC, combined studies, pancolitis): 55%
- Overall improvement at week 6 ([2]; 2.4 g/day, moderate UC, combined studies, previous steroid use: no): 62%
- Overall improvement at week 6 ([2]; 2.4 g/day, moderate UC, combined studies, previous steroid use: yes): 52%
- Overall improvement at week 6 ([2]; 2.4 g/day, moderate UC, combined studies, proctitis): 71%
- Overall improvement at week 6 ([2]; 2.4 g/day, moderate UC, combined studies, proctosigmoiditis): 56%
- Success Rate ([2]; 2.4 g/day, moderate female, bowel and blood and sig scores at least 2, Study 2, primary endpoint, week 6): 27%
- Success Rate ([2]; 2.4 g/day, moderate female, bowel and blood and sig scores at least 2, Study 2, set to failure, week 6): 27%
- Success Rate ([2]; 2.4 g/day, moderate female, bowel and blood and sig scores at least 2, combined studies, primary endpoint, week 6): 51%
- Success Rate ([2]; 2.4 g/day, moderate female, bowel and blood and sig scores at least 2, combined studies, set to failure, week 6): 49%
- Success Rate ([2]; 2.4 g/day, moderate female, steroid or (bowel and blood and sig), Study 1, primary endpoint, week 6): 55%
- Success Rate ([2]; 2.4 g/day, moderate female, steroid or (bowel and blood and sig), Study 1, set to failure, week 6): 51%
- Success Rate ([2]; 2.4 g/day, moderate female, steroid or (bowel and blood and sig), Study 2, primary endpoint, week 6): 33%
- Success Rate ([2]; 2.4 g/day, moderate female, steroid or (bowel and blood and sig), Study 2, set to failure, week 6): 31%
- Success Rate ([2]; 2.4 g/day, moderate female, steroid or (bowel and blood and sig), combined studies, primary endpoint, week 6): 46%
- Success Rate ([2]; 2.4 g/day, moderate female, steroid or (bowel and blood and sig), combined studies, set to failure, week 6): 43%
- Success Rate ([2]; 2.4 g/day, moderate female, steroid use, Study 1, primary endpoint, week 6): 43%
- Success Rate ([2]; 2.4 g/day, moderate female, steroid use, Study 1, set to failure, week 6): 41%
- Success Rate ([2]; 2.4 g/day, moderate female, steroid use, Study 2, primary endpoint, week 6): 38%
- Success Rate ([2]; 2.4 g/day, moderate female, steroid use, Study 2, set to failure, week 6): 33%
- Success Rate ([2]; 2.4 g/day, moderate female, steroid use, combined studies, primary endpoint, week 6): 41%
- Success Rate ([2]; 2.4 g/day, moderate female, steroid use, combined studies, set to failure, week 6): 38%
- Actual response rate ([2]; 2.4 g/day, women, moderate disease): exceeded 60%
- Overall improvement ([2]; 4.8 g/day (800 mg tablet)): 72%
- Success Rate ([2]; 4.8 g/day, female, moderate disease, Study 2, set-to-failure): 59.1%
- Success Rate ([2]; 4.8 g/day, male, moderate disease, Study 1, primary analysis): 75.5%
- Success Rate ([2]; 4.8 g/day, male, moderate disease, Study 1, set-to-failure): 74.1%
- Success Rate ([2]; 4.8 g/day, male, moderate disease, Study 2, primary analysis): 76.3%
- Success Rate ([2]; 4.8 g/day, male, moderate disease, Study 2, set-to-failure): 72.5%
- Overall improvement at week 6 ([2]; 4.8 g/day, moderate UC, combined studies, female): 69%
- Overall improvement at week 6 ([2]; 4.8 g/day, moderate UC, combined studies, left-sided colitis): 71%
- Overall improvement at week 6 ([2]; 4.8 g/day, moderate UC, combined studies, male): 76%
- Overall improvement at week 6 ([2]; 4.8 g/day, moderate UC, combined studies, pancolitis): 71%
- Overall improvement at week 6 ([2]; 4.8 g/day, moderate UC, combined studies, previous steroid use: no): 69%
- Overall improvement at week 6 ([2]; 4.8 g/day, moderate UC, combined studies, previous steroid use: yes): 79%
- Overall improvement at week 6 ([2]; 4.8 g/day, moderate UC, combined studies, proctitis): 77%
- Overall improvement at week 6 ([2]; 4.8 g/day, moderate UC, combined studies, proctosigmoiditis): 71%
- Success Rate ([2]; 4.8 g/day, moderate female, bowel and blood and sig scores at least 2, Study 1, primary endpoint, week 6): 81%
- Success Rate ([2]; 4.8 g/day, moderate female, bowel and blood and sig scores at least 2, Study 2, set to failure, week 6): 53%
- Success Rate ([2]; 4.8 g/day, moderate female, bowel and blood and sig scores at least 2, combined studies, primary endpoint, week 6): 76%
- Success Rate ([2]; 4.8 g/day, moderate female, steroid or (bowel and blood and sig), Study 1, primary endpoint, week 6): 75%
- Success Rate ([2]; 4.8 g/day, moderate female, steroid or (bowel and blood and sig), Study 2, primary endpoint, week 6): 73%
- Success Rate ([2]; 4.8 g/day, moderate female, steroid or (bowel and blood and sig), combined studies, primary endpoint, week 6): 74%
- Success Rate ([2]; 4.8 g/day, moderate female, steroid or (bowel and blood and sig), combined studies, set to failure, week 6): about 65%
- Success Rate ([2]; 4.8 g/day, moderate female, steroid use, Study 1, primary endpoint, week 6): 79%
- Success Rate ([2]; 4.8 g/day, moderate female, steroid use, Study 1, set to failure, week 6): 73%
- Success Rate ([2]; 4.8 g/day, moderate female, steroid use, Study 2, set to failure, week 6): 58%
- Success Rate ([2]; 4.8 g/day, moderate female, steroid use, combined studies, primary endpoint, week 6): 73%
- Difference in Proportions ([2]; 4.8 vs 2.4 g/day, female, moderate disease, Study 1, primary analysis): 2.3%
- Difference in Proportions ([2]; 4.8 vs 2.4 g/day, female, moderate disease, Study 1, set-to-failure): 3.0%
- Difference in Proportions ([2]; 4.8 vs 2.4 g/day, female, moderate disease, Study 2, primary analysis): 4.4%
- Difference in Proportions ([2]; 4.8 vs 2.4 g/day, female, moderate disease, Study 2, set-to-failure): −2.4%
- Difference in Proportions ([2]; 4.8 vs 2.4 g/day, male, moderate disease, Study 1, primary analysis): 25.5%
- Difference in Proportions ([2]; 4.8 vs 2.4 g/day, male, moderate disease, Study 1, set-to-failure): 27.3%
- Difference in Proportions ([2]; 4.8 vs 2.4 g/day, male, moderate disease, Study 2, primary analysis): 27.5%
- Difference in Proportions ([2]; 4.8 vs 2.4 g/day, male, moderate disease, Study 2, set-to-failure): 24.8%
- Observed differences in success rate between treatment groups ([2]; 4.8 vs 2.4 g/day, men, moderate disease): approximately 25%
- Difference in Proportions ([2]; 4.8 vs 2.4 g/day, women, moderate disease, bowel and blood and sigmoidoscopy scores each ≧2, Study 1, primary endpoint): 14%
- Difference in Proportions ([2]; 4.8 vs 2.4 g/day, women, moderate disease, bowel and blood and sigmoidoscopy scores each ≧2, Study 2, primary endpoint): 42%
- Difference in Proportions ([2]; 4.8 vs 2.4 g/day, women, moderate disease, history of steroid use or bowel and blood and sigmoidoscopy each ≧2, Study 1, primary endpoint): 20%
- Difference in Proportions ([2]; 4.8 vs 2.4 g/day, women, moderate disease, history of steroid use or bowel and blood and sigmoidoscopy each ≧2, Study 2, primary endpoint): 40%
- Difference in Proportions ([2]; 4.8 vs 2.4 g/day, women, moderate disease, history of steroid use, Study 1, primary endpoint): 36%
- Difference in Proportions ([2]; 4.8 vs 2.4 g/day, women, moderate disease, history of steroid use, Study 2, primary endpoint): 27%
- Benefit of 4.8 g/day versus 2.4 g/day therapy (FIG. 3) ([2]; by baseline disease activity, subjects having moderate UC): increased therapeutic benefits
- Benefit of 4.8 g/day versus 2.4 g/day therapy (FIG. 2) ([2]; former steroid users, moderate UC): increased therapeutic benefits
- 4.8 g/day group versus 2.4 g/day group across pre-specified subgroups ([2]; point estimates and 95% confidence intervals of differences, 54 subgroups): consistently superior
- Benefit of 4.8 g/day versus 2.4 g/day therapy (FIG. 1) ([2]; subjects under about 65 years of age, Caucasians, non-smokers, moderate UC): increased benefit
- Probability that 4.8 g/day results in a higher success rate than 2.4 g/day (Bayesian analysis) [3]: 99.97%
- Probability of a successful treatment outcome (Bayesian analysis) ([3]; 2.4 g/day): 47.2%
- Probability of a successful treatment outcome (Bayesian analysis) ([3]; 4.8 g/day): 74.7%
- Tolerability ([4]; 2.4 g/day (400 mg tablet)): well tolerated
- Tolerability / adverse events ([4]; 4.8 g/day (800 mg tablet), oral delayed-release): well tolerated with adverse events comparable to the 2.4 g/day (400 mg tablet) dose
- Safety profile of regimen ([4]; about 4.8 g/day vs 2.4 g/day regimen): comparable to that of the 2.4 g/day regimen
